Results from patent publication US20260345798A1, “COMPOUNDS AND METHODS OF USE THEREOF” (Virginia Commonwealth University, priority 2023, published 2026).
Residues, ends and D or L forms follow the SMILES beside them.

Legend:
[1] = test system: T cell, MDSC and Treg populations; test: Flow cytometry of immune cells in lungs of B16-injected mice; format: in vivo, mouse; settings: 30 mg/kg I.P., 6 injections
From the text: FIG. 6B is a series of histograms showing the number of nodules/lung, T cell populations (CD8^+IFN-γ^+) and myeloid-derived suppressor cells (MDSCs) in the lungs of the treatment groups described in FIG. 6A, as measured by flow cytometry. *: Statistical significance (p<0.05);**: Statistical significance (p<0.01);***: Statistical significance (p<0.001). ****: Statistical significance (p<0.0001).
FIG. 15 is a histogram showing the comparative effect of DMSO and IVMT-Rx-3 on Treg populations, as measured by flow cytometry. 5×10^5 B16 cells were injected intravenously in C57BL/6 mice, and the mice were treated with DMSO control or IVMT-Rx-3 (intraperitoneal injection 30 mg/kg, 3× in a week, 6 injections in total). MDSC (Cd11^+Gr1^+) and Treg populations (CD4^+CD25^+[…]) in the lungs were measured by flow cytometry.
Single cells were isolated from lungs by digestion with collagenase D and DNAse I. Cells were stained with the corresponding antibodies and fluorescence signals were measured with a BD Fortessa flow cytometer (BD Biosciences, San Jose, CA). Data were analyzed further with FACs DIVA software (BD Biosciences, San Jose, CA) (18). The antibodies used in this study were CD3, Gr1, CD11b, IFN-γ, CD45, CD8 (Biolegend, San Diego, CA, USA). CD4 (BD Biosciences, San Jose, CA, USA), CD25, and FOXP3 (eBiosciences, CA, USA).

MDA-9/Syntenin [2] = target: T1, MDA-9/Syntenin (Homo sapiens, UniProt O00560); test: Microscale thermophoresis (MST) binding affinity; settings: His-tagged recombinant MDA-9/Syntenin 175 nM, PBS-T pH 7.4, 25 °C, ± S.E., read-out: dissociation constant (KD)
T1 sequence (O00560 1-298): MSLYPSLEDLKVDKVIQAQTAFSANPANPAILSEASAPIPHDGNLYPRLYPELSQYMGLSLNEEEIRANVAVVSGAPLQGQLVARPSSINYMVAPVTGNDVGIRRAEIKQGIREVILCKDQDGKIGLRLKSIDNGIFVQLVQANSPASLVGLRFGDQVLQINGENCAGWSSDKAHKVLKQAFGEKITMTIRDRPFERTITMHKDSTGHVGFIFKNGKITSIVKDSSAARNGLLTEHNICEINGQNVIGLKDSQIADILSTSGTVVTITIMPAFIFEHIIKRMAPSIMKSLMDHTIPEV
Protocol: FIG. 1C is a binding curve of IVMT-Rx-3 bound to MDA-9/Syntenin. The binding constant Ka was measured from the binding curve generated through a microscale thermophoresis (MST) assay.
Binding affinity was measured using microscale thermophoresis (MST) experiments performed on a Monolith NT. Automated instrument (NanoTemper Technologies GmbH, Munich, Germany). His-tagged MDA-9/Syntenin was first labeled with RED-tris-NTA (λEX-650 nm, λEM=670 nm; Cat #MO-LO18) according to the manufacturer's protocol. Briefly, 700 nM MDA-9 in 100 mM phosphate-buffered saline, pH 7.4, containing 0.05% Tween 20 (PBS-T) was added to an equal volume of 100 nM RED-tris-NTA in PBS-T and the mixture was incubated at room temperature for 30 min, centrifuged at 15,000 g for 10 min at 4 °C, and the supernatant containing the labeled protein was transferred to a new tube for use in affinity measurements. […] After a 10-min incubation, the samples were loaded into premium capillary chips and thermophoretic measurements were performed (25 °C, 27% excitation power, medium MST power, 20 s laser on) to follow changes in normalized fluorescence (Fnorm) at different IVMT-Rx-3 concentrations (FIG. 1C). These changes were analyzed using the standard hyperbolic binding isotherm (SigmaPlot) to obtain the affinity of IVMT-Rx-3 for MDA-9/Syntenin. […]

MDA-9/Syntenin [3] = target: T1, MDA-9/Syntenin; test: NMR titration / ITC binding and HSQC mapping
IL-6, IL-10, IL-16 = IL-6, IL-10, IL-16 mRNA by semiquantitative RT-PCR, human melanoma cells; format: cell-based; settings: human melanoma cells (A-375, C8161.9)
Protocol: FIG. 14 is a series of histograms showing the IL-6, IL-10, and IL-16 mRNA fold change in RNA lysates prepared from A-375, C8161.9, and B16 cells treated with IVMT-Rx-3 at varying concentrations as indicated.
Total cellular RNA was extracted using an RNAeasy kit (Qiagen, Germany) as described previously (8,9). All Taqman probes used in this study were obtained from Applied Biosystems (Applied Biosystems, Foster City, CA). Real time PCR was performed using an ABI ViiA7 fast real-time PCR system (Applied Biosystems, Foster City, CA).

- Kd (MDA-9/Syntenin [2]): 63 µM
- Kd (MDA-9/Syntenin [3]; ITC, fitted to a single binding event, NMR titration provides similar values, read-out: overall dissociation constant of the complex, Kd): < 1 µM
- induction of chemical shifts (NMR mapping) (MDA-9/Syntenin [3]; NMR mapping studies): induces chemical shifts in both domains
- perturbation of Met201 (PDZ2) and Met188 (PDZ1) (MDA-9/Syntenin [3]; [13C,1H]-HSQC, 20 μM 13C-Met-labeled MDA-9/Syntenin, 40 μM compound): both clearly perturbed
Structure (SMILES): Cc1cc(NC(=O)c2nc3[nH]c4c(c(=O)n3n2)CCC4)c(C)cc1NC(=O)CCOCCC(=O)N[C@H](C(=O)N[C@@H](CC(N)=O)C(=O)N[C@@H](CCC(=O)O)C(=O)N[C@@H](Cc1ccc(O)cc1)C(=O)N[C@@H](Cc1ccc(O)cc1)C(=O)N[C@H](C(=O)O)C(C)C)[C@@H](C)O [IVMT-Rx-3] (HELM PEPTIDE1{[Cc1cc(NC(=O)c2nc3[nH]c4c(c(=O)n3n2)CCC4)c(C)cc1NC(=O)CCOCCC(=O)[*:2]].T.N.E.Y.Y.V}$$$$V2.0)
- IFN-γ-producing CD8+ T cell populations [1]: significant increase
- MDSC populations [1]: suppression of MDSCs
- Treg population ([1]; 5×10^5 B16 cells): no significant changes
- IL-6, IL-10, IL-16 expression (IL-6, IL-10, IL-16): Down-regulation
